Measured values from patent US20230016424A1, “HYBRID AMIDE DERIVATIVES OF AMPHOTERICIN B” (The Board of Trustees of the University of Illinois, priority 2019, published 2023).
Values after ≈ are worked out from the molar mass of the structure shown. Values joined by “and” are separate entries in the source; they are usually repeats but may differ in a detail not shown here. Equal entries are not always repeated.

Key:
[1] = tested on: C. albicans SN250, C. albicans, C. krusei, C. glabrata, C. tropicalis, A. fumigatus 91, 1163, 1100; assay: Average MIC over the tested strains; format: cell-based; parameters: Avg. MIC of AmB amide: unit not given here; conditions: for MIC: average over the 8 listed strains; for Avg. MIC of AmB amide: value of the corresponding C16 amide of AmB
[2] = tested on: Claophialophora bantiana; assay: MIC against moulds; format: cell-based; conditions: 6 isolates
[3] = tested on: Saksenaea sp.; assay: MIC against moulds; format: cell-based; conditions: 4 isolates
[4] = tested on: A. calldoustus; assay: MIC against moulds; format: cell-based; conditions: 6 isolates
[5] = tested on: Fusarium solani; assay: MIC against moulds; format: cell-based; conditions: 6 isolates
[6] = tested on: moulds (3 strains); assay: MICavg moulds (3 strains); format: cell-based; parameters: unit not given beside the values
[7] = tested on: Histoplasma capsulatum; assay: microbe, parasite or virus in culture; format: cell-based
[8] = tested on: human erythrocytes; assay: MHC hemolysis assay; format: cell-based
Experimental: MHC (FIG. 21B): The protocol for the hemolysis assay was adapted from the report of Paquet and coworkers (Chem. Eur. J. 2008, 14, 2465-2481). Whole human blood (sodium heparin) was purchased from Bioreclamation LLC (Westbury, N.Y.) and stored at 4° C. and used within two days of receipt. To a 2.0 mL eppendorf tube, 1 mL of whole human blood was added and centrifuged at 10,000 g for 2 minutes. The supernatant was removed and the erythrocyte pellet was washed with 1 mL of sterile saline and centrifuged at 10,000 g for 2 minutes. The saline wash was repeated for a total of three washes. The erythrocyte pellet was suspended in 1 mL of RBC buffer (10 mM NaH2PO4, 150 mM NaCl, 1 mM MgCl2, pH 7.4) to form the erythrocyte stock suspension.
Compounds were prepared as >15 mM stock solutions in DMSO and serially diluted to the following concentrations with DMSO: 7689, 5126, 2563, 2050, 1538, 1025, 769, 513, 384, 256, 205, 154, 103, 77, 51, 26 μM. To a 0.2 mL PCR tube, 24 μL of RBC buffer and 1 μL of compound stock solution were added, which gave final concentrations of […]. Positive and negative controls were prepared by adding 1 μL of DMSO to MilliQ water or RBC buffer, respectively to 0.2 mL PCR tube. To each PCR tube, 0.63 μL of the erythrocyte stock suspension was added and mixed by inversion. The samples were incubated at 37° C. for 2 hours. The samples were mixed by inversion and centrifuged at 10,000 g for 2 minutes. 15 μL of the supernatant from each sample was added to a 384-well place. Absorbances were read at 540 nm using a Biotek H1 Synergy Hybrid Reader (Wanooski, Vt.). Experiments were performed in triplicate and the reported MHC represents an average of three experiments.

[9] = tested on: Candida auris; assay: MIC against yeasts; format: cell-based; conditions: 10 isolates
[10] = tested on: Mucor velutinosus; assay: MIC against moulds; format: cell-based; conditions: 6 isolates
[11] = tested on: Coccidioides posadasii; assay: microbe, parasite or virus in culture; format: cell-based
[12] = tested on: Licht. Ramosa; assay: MIC against moulds; format: cell-based; conditions: 6 isolates
[13] = UV-Vis sterol binding assay
Experimental: However, an alternative method was developed for reproducible formation of homogenous AmB and C2′epiAmB sterol sponge aggregates in vitro. Using these preparations, a quantitative UV-Vis and Principle Component (PCA) based assay for determining the apparent KDs for the binding of AmB and C2′epiAmB to ergosterol and cholesterol (FIGS. 5A-5D) was developed.
UV-Vis Binding Assay (FIG. 21A): The protocol for the sterol binding assay (UV-Vis) was developed in our lab. Compounds were dissolved in DMSO at a final concentration of 1 mM. Sterol were first dissolved in CHCl3 (>200 mM) and then diluted to 1 mM concentration with DMSO. To synthesize the complex 1 ul of compound solution was taken in a clean eppendorf tube (2 ml) and sterol solution (volume depends on the stoichiometry) was added to it and the volume was made up to 20 ul with DMSO. 0.98 ml of PBS buffer was added to the Eppendorf tube and mixed properly. The absorbance of the solution was measured after 30 mins of incubation.

[14] = tested on: Fonsecaea sp.; assay: MIC against moulds; format: cell-based; conditions: 6 isolates
[15] = tested on: A. terreus; assay: MIC against moulds; format: cell-based; conditions: 6 isolates
[16] = tested on: Scedosporium boydii; assay: MIC against rare moulds resistant to AmB; format: cell-based; conditions: 6 isolates
[17] = molecular target: T1, CYP2C19 (Homo sapiens, UniProt P33261); assay: CYP Inhibition; format: in vitro ADME; conditions: human liver microsome; for P450 2C19 % Inhibition: 10 um
T1 construct: 158 ul of human liver microsome (HLM) was added to all the wells; from tissue; host or cells: human liver microsomes

[18] = tested on: Mucor janssenii; assay: MIC against moulds; format: cell-based; conditions: 6 isolates
[19] = tested on: A. niger; assay: MIC against moulds; format: cell-based; conditions: 6 isolates
[20] = tested on: A. fumigatus; assay: MIC against moulds; format: cell-based; conditions: 5 isolates
[21] = Plasma Stability; format: in vitro ADME; conditions: for half-life at 1 µM: pH 7.4
Outline: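 Compound incubated in plasma at 37 °C, sampled in triplicate at 0, 10, 30, 60 and 120 min. Samples quenched with acetonitrile containing internal standards, centrifuged, and supernatant analysed by LC-MS/MS.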

[22] = tested on: Coccidioides immitis; assay: microbe, parasite or virus in culture; format: cell-based
[23] = hemolysis, human erythrocytes, 37° C. 2 hours
[24] = Table 12, C16 amides of C2'epiAmB
[25] = Table 13, C16 amides of C2’epiAmB

T1 sequence (P33261 whole entry): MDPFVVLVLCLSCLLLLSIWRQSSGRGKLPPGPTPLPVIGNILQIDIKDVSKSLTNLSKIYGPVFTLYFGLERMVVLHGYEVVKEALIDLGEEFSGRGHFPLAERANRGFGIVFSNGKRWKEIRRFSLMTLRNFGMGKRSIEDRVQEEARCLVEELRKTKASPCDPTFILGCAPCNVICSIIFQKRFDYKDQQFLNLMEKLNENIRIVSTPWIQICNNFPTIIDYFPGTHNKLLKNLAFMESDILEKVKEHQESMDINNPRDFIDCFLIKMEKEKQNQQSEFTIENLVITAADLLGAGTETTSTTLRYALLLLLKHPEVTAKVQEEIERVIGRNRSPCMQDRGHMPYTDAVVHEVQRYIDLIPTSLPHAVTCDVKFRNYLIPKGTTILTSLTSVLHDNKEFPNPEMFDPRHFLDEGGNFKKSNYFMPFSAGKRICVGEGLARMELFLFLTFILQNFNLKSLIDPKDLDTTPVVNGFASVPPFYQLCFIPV

Compound | MIC [1] | MIC [2] [µM] | MIC [3] [µM] | MIC [4] [µM] | MICavg moulds (3 strains) [6] | MHC [8, 23] [µM] | MHC ([8]; summary table, unit not given) | MIC [12] [µM] | Binds Cholesterol [13] | Cholesterol Binding [13] | % Remaining at 120 min ([21]; Human Plasma) [%] | Half Life ([21]; Human Plasma) | Average MIC [1, 24] [µM] | Average MIC [1, 25] [µM] | Avg. MIC of AmB amide ([1]; not of the C2’epi compound) | MIC [5] [µM] | MIC Histoplasma capsulatum [7] [µM] | MIC [9] [µM] | MIC [10] [µM] | MIC Coccidioides posadasii [11] [µM] | further results
C[C@@H]1[C@H](O)[C@@H](C)/C=C/C=C/C=C/C=C/C=C/C=C/C=C/[C@H](OC2O[C@H](C)[C@@H](O)[C@H](N)[C@@H]2O)C[C@@H]2O[C@](O)(C[C@@H](O)C[C@@H](O)[C@H](O)CC[C@@H](O)C[C@@H](O)CC(=O)O[C@H]1C)C[C@H](O)[C@H]2C(=O)O (stereo partly shown) [AmB, Amphotericin B] | 0.642 µM and 0.44 µM | 0.375 (≈ 0.347 µg/mL) | 0.06 (≈ 0.0554 µg/mL) | 1.5 (≈ 1.39 µg/mL) | 0.92 | 8.4 | 8.4 | 0.15 (≈ 0.139 µg/mL) | Yes | Yes | 97.7 | >289; >289 min | – | – | – | – | – | – | – | – | MIC ([5]; Fusarium solani): 1.33 µM (≈ 1.23 µg/mL); MIC ([7]; Histoplasma capsulatum, read-out: MIC Histoplasma capsulatum): 0.06 µM (≈ 0.0554 µg/mL); MIC ([9]; Candidozyma auris): 1.2 µM (≈ 1.11 µg/mL); MIC ([10]; Mucor velutinosus): 0.08 µM (≈ 0.0739 µg/mL); MIC ([11]; Coccidioides posadasii, read-out: MIC Coccidioides posadasii): 0.06 µM (≈ 0.0554 µg/mL); MIC ([14]; Fonsecaea): < 0.03 µM; MIC ([15]; Aspergillus terreus): 3 µM (≈ 2.77 µg/mL); MIC ([16]; Scedosporium boydii): > 16 µM; inhibition at 10 min, 10 µM ([17]; human liver microsomes, probe 5 in 1 substrate cocktail (substrates not named), read-out: P450 2C19 % Inhibition): 7.3%; MIC ([18]; Mucor janssenii): 0.06 µM (≈ 0.0554 µg/mL); MIC ([19]; Aspergillus niger): 0.21 µM (≈ 0.194 µg/mL); MIC ([20]; Aspergillus fumigatus): 0.71 µM (≈ 0.656 µg/mL); % Remaining at 120 min ([21]; Rat Plasma): 88.3%; half-life at 1 µM ([21]; Human Plasma): > 4.82 h; half-life at 1 µM ([21]; Mouse Plasma): > 4.82 h; half-life at 1 µM ([21]; Rat Plasma): > 4.82 h; MIC ([22]; Coccidioides immitis, read-out: MIC Coccidioides immitis): 0.125 µM (≈ 0.116 µg/mL)
CC1C=CC=CC=CC=CC=CC=CC=CC(OC2OC(C)C(O)C(N)C2O)CC2OC(O)(CC(O)CC(O)C(O)CCC(O)CC(O)CC(=O)OC(C)C(C)C1O)CC(O)C2C(=O)NCCO (stereo not shown) [Compound BA] | 0.727 µM | 2 (≈ 1.93 µg/mL) | 0.34 (≈ 0.329 µg/mL) | 1.67 (≈ 1.62 µg/mL) | 1.3 | >500 | >500 | 1.1 (≈ 1.06 µg/mL) | No | No | 118 | >289 min and >289; >289 min | 1.031 | 1030 | 0.18 | 8.67 (≈ 8.39 µg/mL) | 0.06 (≈ 0.058 µg/mL) | 2.8 (≈ 2.71 µg/mL) | 1.25 (≈ 1.21 µg/mL) | 0.46 (≈ 0.445 µg/mL) | Average MIC for AmB analogue ([1]; value of the corresponding AmB analogue, not of the C2’epi compound): 0.328 μM; MIC [14]: 0.06 µM (≈ 0.058 µg/mL); MIC [15]: 3.33 µM (≈ 3.22 µg/mL); MIC [16]: >16 µM; P450 2C19 % Inhibition [17]: 26.0%; MIC [18]: 0.92 µM (≈ 0.89 µg/mL); MIC [19]: 0.58 µM (≈ 0.561 µg/mL); MIC [20]: 2 µM (≈ 1.93 µg/mL); % Remaining at 120 min ([21]; Mouse Plasma): 100%; Half Life ([21]; Mouse Plasma): >289 min and >289; >289 min; MIC Coccidioides immitis [22]: 0.29 µM (≈ 0.28 µg/mL)
CC1C=CC=CC=CC=CC=CC=CC=CC(OC2OC(C)C(O)C(N)C2O)CC2OC(O)(CC(O)CC(O)C(O)CCC(O)CC(O)CC(=O)OC(C)C(C)C1O)CC(O)C2C(=O)NCCF (stereo not shown) [Compound BM] | – | 1 (≈ 0.969 µg/mL) | 0.34 (≈ 0.33 µg/mL) | 1.5 (≈ 1.45 µg/mL) | 1.7 | – | >100 | 1 (≈ 0.969 µg/mL) | No | – | – | >289; >289 min | 0.844 | 840 | 0.39 | 8.8 (≈ 8.53 µg/mL) | 0.06 (≈ 0.0581 µg/mL) | 2.4 (≈ 2.33 µg/mL) | 0.92 (≈ 0.892 µg/mL) | 0.42 (≈ 0.407 µg/mL) | MIC [14]: <0.03 µM; MIC [15]: 1.08 µM (≈ 1.05 µg/mL); MIC [16]: >16 µM; P450 2C19 % Inhibition [17]: 19.7%; MIC [18]: 0.92 µM (≈ 0.892 µg/mL); MIC [19]: 3 µM (≈ 2.91 µg/mL); MIC [20]: 1.83 µM (≈ 1.77 µg/mL); Half Life ([21]; Mouse Plasma): >289; >289 min; MIC Coccidioides immitis [22]: 0.23 µM (≈ 0.223 µg/mL)
